Laboratory results taken from US11059827B2, “Compounds and compositions useful for treating disorders related to NTRK” (Blueprint Medicines Corporation, priority 2015, dated 2021).

Tests used:
[1] = test system: KM12 wild type colon carcinoma cell line harboring the TPM3-NTRK1 fusion protein; test: NTRK wild type cellular assay (KM12, CellTiter-Glo); format: cell-based; conditions: KM12 wild type cells, 72 hr
Experimental: (§1) NTRK Wild Type and G595R Mutant Cellular Assays Protocol
(§2) KM12 wild type colon carcinoma cell line harboring the TPM3-NTRK1 fusion protein was obtained from the National Cancer Institute (NCI). This line has been previously shown to be dependent upon the NTRK activity derived from the NTRK fusion protein for growth and survival. […] Cells were first plated in 384-well plates at 1000 cells/well in complete media (10% FBS and 1% pen/strep) and incubated overnight at 37° C. Cells were then dosed with test articles at varying concentrations using the Bravo liquid handling system. Concentrations ranged from 25 uM down to […] (4-fold dilutions, 10 concentrations total). Each compound was run in duplicate per plate. DMSO and staurosporine (25 uM) were included on each plate as negative and positive controls for growth inhibition. 72 hr after dosing, assay plates were developed using CellTiter-Glo (Promega) and resultant luminescence was read on the Envision plate reader. IC50 determinations were calculated using a 4-parameter curve fitting algorithm

[2] = test system: KM12 Cliff (G595R) cell line; test: NTRK G595R mutant cellular assay (KM12 Cliff, CellTiter-Glo); format: cell-based; conditions: KM12 Cliff (G595R) cells, 72 hr
Experimental: as §1, §2

`N#Cc1cnn2cc(F)c(N3C[C@@H](F)C[C@@H]3c3cc(F)cc(C(N)=O)c3)nc12` [Compound 15] showed an IC50 [1] of 10 to 100 nM and an IC50 [2] of 10 to 100 nM.
